Data taken from patent US20200306204A1, “TRANSDERMAL DELIVERY SYSTEM COMPRISING BUPRENORPHINE” (LTS Lohmann Therapie-Systeme AG, priority 2011, published 2020).

Assay: Solubility

CO[C@]12CC[C@@]3(C[C@@H]1[C@](C)(O)C(C)(C)C)[C@H]1Cc4ccc(O)c5c4[C@@]3(CCN1CC1CC1)[C@H]2O5 [Buprenorphine, (5R,6R,7R,9R,13S,14S)-17-Cyclopropylmethyl-7-[(S)-3,3-dimethyl-2-hydroxybutan-2-yl]-6-methoxy-4,5-epoxy-6,14-ethanomorphinan-3-ol]
Solubility in polysiloxanes: extremely low solubility
